Laboratory results reported in PubChem BioAssay AID2060326 (Molecular Pharmacology Branch, DTP, NCI, 2025).
pIC50: −log10 of the molar value. Where “and” joins values, the source holds several entries; their conditions need not be identical. Equal values may be shown once.

Tested on: MDA-MB-468 multi-cell spheroids, viability
Test: Anticancer human tumor MDA-MB-468 cell line growth inhibition [IpAb];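 also: spheroids exposed to agents for seven days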
Conditions: for viability, T/C: stronger effect = lower value; active = viability on the fitted dose curve at most 10% of control; inactive = the rest
From the text: Combinatorial screen of targeted agents with ipatasertib and abemaciclib in multi-cell type tumor spheroids
A high-throughput screen of multi-cell type tumor spheroids was designed to identify active combinations of targeted small molecules and ipatasertib or abemaciclib. Complex spheroids include a stromal component modeled by human endothelial cells (HUVEC) and fibroblasts modeled by human mesenchymal stem cells (MSCs). The concentration ranges selected for each drug and investigational agent were based upon clinically achievable concentrations if the clinical Cmax of the agent was known.
Compounds. The drugs and investigational agents: ipatasertib (NSC767898), abemaciclib(NSC768073), selumetinib (NSC741078), trametinib (758246), adavosertib (NSC754352), everolimus (NSC733504), sapanisertib (NSC764658), vemurafenib (NSC761431), venetoclax (NSC766270), copanlisib (NSC809693), apelisib (NSC765974), palbociblib (NSC758247), vemurafenib (NSC761431), dabrafenib (NSC764134), ravoxertinib (NSC781343), BMS-387032 (NSC767048), sotorasib (NSC818433), talazoparib (NSC767125) and afursertib (NSC778305), were obtained from the National Cancer Institute (NCI) Developmental Therapeutics Program Chemical Repository. The FDA-approved anticancer drug set is available from the NCI Developmental Therapeutics Program. […] The stock solutions were prepared in dimethyl sulfoxide (DMSO, Sigma-Aldrich, St. Louis, MO, cat. D2650) at 800-fold the tested concentration and stored at -70 degrees C prior to their use. All drugs and investigational agents were tested over a range starting from a high concentration at or near the clinical Cmax and decreasing in half-log increments. If the clinical Cmax for an agent had not been determined, the highest concentration tested was 10 microM.
NCI60 Cell Culture. NCI60 cell lines were obtained from the NCI Developmental Therapeutics Program Tumor Repository. For each lot of cells, the Repository performed Applied Biosystems AmpFLSTR Identifiler testing with PCR amplification to confirm consistency with the published Identifier STR profile for each cell line. Cells were kept in continuous culture for no more than 20 passages. The optimal seeding densities for each of the cell lines at each time point assessed were determined prior to performing the concentration response studies. Briefly, the NCI60 human tumor lines were grown as monolayers in RPMI 1640 medium supplemented with 10% FBS and 2 mmol/L L-glutamine.
An additional 9 lines were from the NCI60 cell line panel including MDA-MB-231 breast carcinoma, MDA-MB-468 breast carcinoma, MCF7 breast carcinoma, Hs578T breast carcinoma, MALME-3M melanoma, SK-MEL-2 melanoma, SK-OV-3 ovarian carcinoma, DU-145 prostate carcinoma, PC-3 prostate carcinoma, all cell lines along with major genetic alterations are listed on Table 2. Pooled donor human umbilical vein endothelial cells (HUVEC, Lonza, cat. CC-2519) and human mesenchymal stem cells (hMSC, Lonza, cat. PT-2501) were purchased from Lonza (Walkersville, MD).
PDMR cell lines were grown in complete medium (DC medium): Dulbecco's modified Eagle's medium (DMEM)/F12 supplemented with 5% fetal bovine serum (FBS), 2 mM L-glutamine, 100 U/mL penicillin and 100 µg/ml streptomycin, 0.4 µg/ml hydrocortisone, 10 ng/ml epidermal growth factor (EGF) recombinant human protein, 24 µg/mL adenine, and 0.1 mg/mL primocin. During culture from frozen stock vials, PDMR cells were cultured in the same medium containing 10 µM Y-27632 (see Table 3). The PDCs were cultured in complete DMEM/F12 media without 10 microM Y-27632 dihydrochloride for at least two passages prior to the screen. The pooled donor HUVEC and hMSC were cultured in endothelial cell growth medium 2 (PromoCell, Heidelberg, Germany, cat. C-22011) and mesenchymal stem cell growth medium 2 (PromoCell, cat. C-28009), respectively. For all experiments, HUVEC and hMSC were used at passages </=5.
[…]

[1] = curve of first compound, second compound 0.01 µM
[2] = curve of first compound, second compound 0.0316 µM
[3] = curve of first compound, second compound 0.1 µM
[4] = curve of first compound, second compound 0.316 µM
[5] = curve of first compound, second compound 1 µM

Cn1cnc2c(F)c(Nc3ccc(Br)cc3Cl)c(C(=O)NOCCO)cc21 + CCN1CCN(Cc2ccc(Nc3ncc(F)c(-c4cc(F)c5nc(C)n(C(C)C)c5c4)n3)nc2)CC1
6.10: pIC50 [3]
6.82: pIC50 [5]
inactive: viability, T/C (second compound 0.01 µM, first compound 0.00949 µM) 102% | viability, T/C (second compound 0.01 µM, first compound 0.03 µM) 79.5% | viability, T/C (second compound 0.01 µM, first compound 0.0949 µM) 77.7% | viability, T/C (second compound 0.01 µM, first compound 0.3 µM) 73.3% | viability, T/C (second compound 0.01 µM, first compound 0.949 µM) 55.1% | viability, T/C (second compound 0.01 µM, first compound 3 µM) 31.5% | viability, T/C (second compound 0.0316 µM, first compound 0.00949 µM) 83.7% | viability, T/C (second compound 0.0316 µM, first compound 0.03 µM) 76.3% | viability, T/C (second compound 0.0316 µM, first compound 0.0949 µM) 73.6% | viability, T/C (second compound 0.0316 µM, first compound 0.3 µM) 60.8% | viability, T/C (second compound 0.0316 µM, first compound 0.949 µM) 52% | viability, T/C (second compound 0.0316 µM, first compound 3 µM) 29.7% | viability, T/C (second compound 0.1 µM, first compound 0.00949 µM) 95.8% | viability, T/C (second compound 0.1 µM, first compound 0.03 µM) 73.6% | viability, T/C (second compound 0.1 µM, first compound 0.0949 µM) 81.3% | viability, T/C (second compound 0.1 µM, first compound 0.3 µM) 58.8% | viability, T/C (second compound 0.1 µM, first compound 0.949 µM) 52.4% | viability, T/C (second compound 0.1 µM, first compound 3 µM) 28.4% | viability, T/C (second compound 0.316 µM, first compound 0.00949 µM) 108% | viability, T/C (second compound 0.316 µM, first compound 0.03 µM) 89.8% | viability, T/C (second compound 0.316 µM, first compound 0.0949 µM) 75.5% | viability, T/C (second compound 0.316 µM, first compound 0.3 µM) 63.3% | viability, T/C (second compound 0.316 µM, first compound 0.949 µM) 51.1% | viability, T/C (second compound 0.316 µM, first compound 3 µM) 16.8% | viability, T/C (second compound 1 µM, first compound 0.00949 µM) 92.7% | viability, T/C (second compound 1 µM, first compound 0.03 µM) 69% | viability, T/C (second compound 1 µM, first compound 0.0949 µM) 58.9% | viability, T/C (second compound 1 µM, first compound 0.3 µM) 43.5% | viability, T/C (second compound 1 µM, first compound 0.949 µM) 18.8%
6.04: pIC50 [2]
active: viability, T/C (second compound 1 µM, first compound 3 µM) 3.98%
5.95: pIC50 [1]
6.22: pIC50 [4]

CC(C)n1nc(-c2ccc3oc(N)nc3c2)c2c(N)ncnc21 + CCN1CCN(Cc2ccc(Nc3ncc(F)c(-c4cc(F)c5nc(C)n(C(C)C)c5c4)n3)nc2)CC1
inactive: viability, T/C (second compound 0.01 µM, first compound 0.000316 µM) 90.8% | viability, T/C (second compound 0.01 µM, first compound 0.001 µM) 90% | viability, T/C (second compound 0.01 µM, first compound 0.00316 µM) 69.7% | viability, T/C (second compound 0.01 µM, first compound 0.01 µM) 57.6% | viability, T/C (second compound 0.01 µM, first compound 0.0316 µM) 24.9% | viability, T/C (second compound 0.0316 µM, first compound 0.000316 µM) 95.6% | viability, T/C (second compound 0.0316 µM, first compound 0.001 µM) 81.4% | viability, T/C (second compound 0.0316 µM, first compound 0.00316 µM) 67% | viability, T/C (second compound 0.0316 µM, first compound 0.01 µM) 56% | viability, T/C (second compound 0.0316 µM, first compound 0.0316 µM) 26.4% | viability, T/C (second compound 0.0316 µM, first compound 0.1 µM) 11.6% | viability, T/C (second compound 0.1 µM, first compound 0.000316 µM) 99% | viability, T/C (second compound 0.1 µM, first compound 0.001 µM) 78.3% | viability, T/C (second compound 0.1 µM, first compound 0.00316 µM) 75.8% | viability, T/C (second compound 0.1 µM, first compound 0.01 µM) 54% | viability, T/C (second compound 0.1 µM, first compound 0.0316 µM) 26.9% | viability, T/C (second compound 0.316 µM, first compound 0.000316 µM) 91.4% | viability, T/C (second compound 0.316 µM, first compound 0.001 µM) 88.3% | viability, T/C (second compound 0.316 µM, first compound 0.00316 µM) 86% | viability, T/C (second compound 0.316 µM, first compound 0.01 µM) 54.7% | viability, T/C (second compound 0.316 µM, first compound 0.0316 µM) 35% | viability, T/C (second compound 0.316 µM, first compound 0.1 µM) 14.5% | viability, T/C (second compound 1 µM, first compound 0.000316 µM) 75.2% | viability, T/C (second compound 1 µM, first compound 0.001 µM) 81.3% | viability, T/C (second compound 1 µM, first compound 0.00316 µM) 64.2% | viability, T/C (second compound 1 µM, first compound 0.01 µM) 53.2% | viability, T/C (second compound 1 µM, first compound 0.0316 µM) 34% | viability, T/C (second compound 1 µM, first compound 0.1 µM) 20%
7.83: pIC50 [4]
7.98: pIC50 [2]
7.94: pIC50 [1] | pIC50 [5]
active: viability, T/C (second compound 0.01 µM, first compound 0.1 µM) 10.6% | viability, T/C (second compound 0.1 µM, first compound 0.1 µM) 10.2%
7.95: pIC50 [3]

CC1(C)CCC(CN2CCN(c3ccc(C(=O)NS(=O)(=O)c4ccc(NCC5CCOCC5)c([N+](=O)[O-])c4)c(Oc4cnc5[nH]ccc5c4)c3)CC2)=C(c2ccc(Cl)cc2)C1
10% and 5.86%: viability, T/C (compound 10 µM)
inactive: viability, T/C (compound 0.0316 µM) 111% and 107% | viability, T/C (compound 0.1 µM) 106% and 94.5% | viability, T/C (compound 0.316 µM) 102% and 89.2% | viability, T/C (compound 1 µM) 95.9% and 85.8% | viability, T/C (compound 3.16 µM) 73% and 52.9%
5.32 and 5.45: pIC50 (curve of compound)
